Assay results reported in ChEMBL document CHEMBL4002577, “Phenylthiazole antibiotics: A metabolism-guided approach to overcome short duration of action” (Eur J Med Chem, 2017).
In brackets after ≈: the same amount, converted by molar mass. Activity calls are given as the source filed them. The rule behind the calls is not given here.

Experiments:
Staphylococcus aureus [1] = test: Antibacterial activity against vancomycin-resistant Staphylococcus aureus VRSA10 clinical isolate after 18 to 20 hrs by broth microdilution method; type: functional
Staphylococcus aureus [2] = test: Bactericidal activity against methicillin-resistant Staphylococcus aureus USA400 NRS123 clinical isolate after 24 hrs; type: functional
[3] = Intrinsic clearance in human liver microsomes after 10 to 60 mins in presence of NADPH by LC/MS/MS analysis; type: ADME, microsome; settings: read-out: CLH
Staphylococcus aureus [4] = test: Antibacterial activity against methicillin/ciprofloxacin/clindamycin-resistant Staphylococcus aureus USA100 NRS382 clinical isolate after 18 to 20 hrs by broth microdilution method; type: functional
Staphylococcus aureus [5] = test: Potentiation of vancomycin-mediated antibacterial activity against vancomycin-resistant Staphylococcus aureus VRSA10 clinical isolate assessed as reduction in vancomycin MIC at 0.5 times MIC preincubated for 30 mins followed by vancomycin addition measured after 20 to 22 hrs relative to control; type: functional
Staphylococcus aureus [6] = test: Antibacterial activity against methicillin-resistant Staphylococcus aureus 2658 RCMB after 18 to 20 hrs by broth microdilution method; type: functional
HaCaT [7] = test: Cytotoxicity against human HaCaT cells assessed as decrease in cell viability at 64 ug/ml after 2 hrs by MTS assay; type: cell-based
Staphylococcus aureus [8] = test: Potency index, ratio of vancomycin MIC to test compound MIC for methicillin-resistant Staphylococcus aureus 2658 RCMB; type: functional
Staphylococcus aureus [9] = test: Bactericidal activity against mupirocin/rifampicin-resistant Staphylococcus aureus RN4220 NRS107 clinical isolate after 24 hrs; type: functional; settings: RN4220 NRS107, 24 h
Staphylococcus aureus [10] = test: Bactericidal activity against methicillin-resistant Staphylococcus aureus USA400 NRS123 clinical isolate assessed as time required to reduce 3 log10CFU of bacterial load at 4 times MIC by time kill assay; type: functional
Staphylococcus aureus [11] = test: Bactericidal activity against vancomycin-resistant Staphylococcus aureus VRSA4 clinical isolate after 24 hrs; type: functional; settings: VRSA4, 24 h
Staphylococcus aureus [12] = test: Antibacterial activity against methicillin-resistant Staphylococcus aureus USA400 NRS123 clinical isolate infected in mouse J774 cells assessed as reduction of bacterial load at 16 ug/ml after 12 hrs relative to control; type: functional; settings: USA400 NRS123, J774, 12 h
Staphylococcus aureus [13] = test: Bactericidal activity against methicillin/erythromycin/tetracycline-resistant Staphylococcus aureus USA300 NRS384 clinical isolate after 24 hrs; type: functional
Staphylococcus aureus [14] = test: Bactericidal activity against vancomycin-resistant Staphylococcus aureus VRSA10 clinical isolate after 24 hrs; type: functional; settings: VRSA10, 24 h
HaCaT [15] = test: Cytotoxicity against human HaCaT cells assessed as decrease in cell viability up to 32 ug/ml after 2 hrs by MTS assay; type: cell-based
[16] = Half life in human liver microsomes after 10 to 60 mins in presence of NADPH by LC/MS/MS analysis; type: ADME, microsome
Staphylococcus aureus [17] = test: Bactericidal activity against methicillin/ciprofloxacin/clindamycin-resistant Staphylococcus aureus USA100 NRS382 clinical isolate after 24 hrs; type: functional
[18] = Intrinsic clearance in human liver microsomes after 10 to 60 mins in absence of NADPH by LC/MS/MS analysis; type: ADME, microsome; settings: read-out: CLH
Staphylococcus aureus [19] = test: Ratio of MBC to MIC for methicillin-resistant Staphylococcus aureus USA400 NRS123 clinical isolate; type: functional
Staphylococcus aureus [20] = test: Antibacterial activity against methicillin/ciprofloxacin/gentamicin/clindamycin-resistant Staphylococcus aureus USA200 NRS383 clinical isolate after 18 to 20 hrs by broth microdilution method; type: functional
Staphylococcus aureus [21] = test: Antibacterial activity against methicillin-resistant Staphylococcus aureus USA400 NRS123 clinical isolate infected in mouse J774 cells assessed as reduction of bacterial load at 16 ug/ml after 8 hrs; type: functional, cell-based
Staphylococcus aureus [22] = test: Antibacterial activity against mupirocin/rifampicin-resistant Staphylococcus aureus RN4220 NRS107 clinical isolate after 18 to 20 hrs by broth microdilution method; type: functional
Staphylococcus aureus [23] = test: Bactericidal activity against methicillin/ciprofloxacin/gentamicin/clindamycin-resistant Staphylococcus aureus USA200 NRS383 clinical isolate after 24 hrs; type: functional
Staphylococcus aureus [24] = test: Ratio of MBC to MIC for methicillin/erythromycin/tetracycline-resistant Staphylococcus aureus USA300 NRS384 clinical isolate; type: functional
Staphylococcus aureus [25] = test: Ratio of MBC to MIC for methicillin/ciprofloxacin/gentamicin/clindamycin-resistant Staphylococcus aureus USA200 NRS383 clinical isolate; type: functional
Staphylococcus aureus [26] = test: Antibacterial activity against methicillin-resistant Staphylococcus aureus USA400 NRS123 clinical isolate infected in mouse J774 cells assessed as reduction of bacterial load at 16 ug/ml after 24 hrs relative to control; type: functional; settings: USA400 NRS123, J774, 24 h
J774 = test: Cytotoxicity against mouse J774 cells assessed as decrease in cell viability up to 16 ug/ml after 2 hrs by MTS assay; type: cell-based; settings: j774, 2 h
Staphylococcus aureus [27] = test: Antibacterial activity against methicillin-resistant Staphylococcus aureus USA400 NRS123 clinical isolate after 18 to 20 hrs by broth microdilution method; type: functional
[28] = Half life in human liver microsomes after 10 to 60 mins in absence of NADPH by LC/MS/MS analysis; type: ADME, microsome
Staphylococcus aureus [29] = test: Potentiation of vancomycin-mediated antibacterial activity against vancomycin-resistant Staphylococcus aureus VRSA4 clinical isolate assessed as reduction in vancomycin MIC at 0.5 times MIC preincubated for 30 mins followed by vancomycin addition measured after 20 to 22 hrs relative to control; type: functional
Staphylococcus aureus [30] = test: Antibacterial activity against vancomycin-resistant Staphylococcus aureus VRSA4 clinical isolate after 18 to 20 hrs by broth microdilution method; type: functional
Staphylococcus aureus [31] = test: Antibacterial activity against methicillin/erythromycin/tetracycline-resistant Staphylococcus aureus USA300 NRS384 clinical isolate after 18 to 20 hrs by broth microdilution method; type: functional
[32] = Drug metabolism in Sprague-Dawley rat urine assessed as […] at 50 mg/kg administered via oral gavage after 24 hrs by LC/MS/MS analysis; type: ADME, organism-based; settings: in vivo
Staphylococcus aureus [33] = test: Antibacterial activity against methicillin-resistant Staphylococcus aureus USA300 infected in Balb/c mouse assessed as reduction in bacterial load in wound at 2% administered topically bid for 3 days starting 48 hrs post infection relative to control; type: functional
[34] = Drug metabolism in Sprague-Dawley rat urine assessed as CYP450-mediated oxidation at 50 mg/kg administered via oral gavage after 24 hrs by LC/MS/MS analysis; type: ADME, organism-based; settings: in vivo
[35] = Drug metabolism in Sprague-Dawley rat serum assessed as CYP450-mediated oxidation at 50 mg/kg administered via oral gavage after 6 hrs by LC/MS/MS analysis; type: ADME, organism-based; settings: in vivo
[36] = Drug metabolism in Sprague-Dawley rat serum assessed as […] at 50 mg/kg administered via oral gavage after 6 hrs by LC/MS/MS analysis; type: ADME, organism-based; settings: in vivo

C/C(=N\NC(=N)N)c1sc(-c2ccc(OC3CCCCCC3)cc2)nc1C
MIC (Staphylococcus aureus [1]): 4 µg/mL (≈ 10.4 µM) | Activity (Staphylococcus aureus [2]): Dose-dependent effect | MBC (Staphylococcus aureus [2]; USA400 NRS123, 24 h): 16 µg/mL (≈ 41.5 µM) | microsomal CLint [3]: < 9.6 µL/min/mg | MIC (Staphylococcus aureus [4]): 2 µg/mL (≈ 5.19 µM) | fold change (FC) (Staphylococcus aureus [5]): 256 | MIC (Staphylococcus aureus [6]): 0.98 µg/mL (≈ 2.54 µM) | Activity (HaCaT [7]): Toxic | Ratio (Staphylococcus aureus [8]): 1 | MBC (Staphylococcus aureus [9]): 8 µg/mL (≈ 20.8 µM) | Time (Staphylococcus aureus [10]): 48 h | MBC (Staphylococcus aureus [11]): 4 µg/mL (≈ 10.4 µM) | inhibition at 16 µg/mL (Staphylococcus aureus [12]): 48% | Activity (Staphylococcus aureus [13]): Dose-dependent effect | MBC (Staphylococcus aureus [13]; USA300 NRS384, 24 h): 16 µg/mL (≈ 41.5 µM) | MBC (Staphylococcus aureus [14]): 4 µg/mL (≈ 10.4 µM) | Activity (HaCaT [15]): Non-Toxic | half-life [16]: > 4 h | Activity (Staphylococcus aureus [17]): Dose-dependent effect | MBC (Staphylococcus aureus [17]; USA100 NRS382, 24 h): 4 µg/mL (≈ 10.4 µM) | microsomal CLint [18]: < 9.6 µL/min/mg | Ratio (Staphylococcus aureus [19]): >3 | MIC (Staphylococcus aureus [20]): 2 µg/mL (≈ 5.19 µM) | Activity (Staphylococcus aureus [21]): inactive | MIC (Staphylococcus aureus [22]): 4 µg/mL (≈ 10.4 µM) | Activity (Staphylococcus aureus [23]): Dose-dependent effect | MBC (Staphylococcus aureus [23]; USA200 NRS383, 24 h): 8 µg/mL (≈ 20.8 µM) | Ratio (Staphylococcus aureus [24]): >3 | Ratio (Staphylococcus aureus [25]): >3 | inhibition at 16 µg/mL (Staphylococcus aureus [26]): 70% | Activity (J774): Non-Toxic | MIC (Staphylococcus aureus [27]): 4 µg/mL (≈ 10.4 µM) | half-life [28]: > 4 h | fold change (FC) (Staphylococcus aureus [29]): 16 | MIC (Staphylococcus aureus [30]): 4 µg/mL (≈ 10.4 µM) | MIC (Staphylococcus aureus [31]): 4 µg/mL (≈ 10.4 µM)

CCCCc1ccc(-c2nc(C)c(/C(C)=N/NC(=N)N)s2)cc1
microsomal CLint [3]: 80.3 µL/min/mg | MIC (Staphylococcus aureus [6]): 3.75 µg/mL (≈ 11.4 µM) | Drug metabolism [32]: Metabolite_Detected | half-life [16]: 0.48 h | Activity (Staphylococcus aureus [33]): 2.36 deltalog10CFU | Drug metabolism [34]: Metabolite_Detected | Drug metabolism [35]: Metabolite_Detected | Drug metabolism [36]: Metabolite_Detected | half-life [28]: > 1 h
